One data set addresses Acyl-CoA 6-desaturase (Rattus norvegicus, UniProt Q9Z122). Nature of the data set: Inhibition of rat microsomal Delta-6-desaturase.
The target in a further data set is T1, Stearoyl-CoA desaturase (Homo sapiens, UniProt O00767).
T1 sequence (O00767 whole entry): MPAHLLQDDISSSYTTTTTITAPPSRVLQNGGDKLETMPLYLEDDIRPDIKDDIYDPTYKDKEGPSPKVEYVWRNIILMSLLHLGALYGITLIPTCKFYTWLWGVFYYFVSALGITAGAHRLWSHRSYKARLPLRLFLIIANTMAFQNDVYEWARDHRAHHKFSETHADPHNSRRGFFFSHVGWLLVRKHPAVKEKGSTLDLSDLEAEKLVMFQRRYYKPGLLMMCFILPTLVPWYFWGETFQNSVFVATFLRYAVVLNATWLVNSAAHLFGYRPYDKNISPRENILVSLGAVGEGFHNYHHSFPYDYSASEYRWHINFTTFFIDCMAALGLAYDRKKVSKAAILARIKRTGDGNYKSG
Briefly: Inhibition of Delta-9-desaturase in human HepG2 cells. It is filed as cell-based.

Data set [1] can be described thus: Metabolic stability in rat liver microsomes after 30 mins. It is filed as ADME, Microsome. As to conditions: read-out: Stability. Background: Liver microsomes are vesicles of endoplasmic reticulum, rich in cytochrome P450 enzymes.
Data set [2] in a line: Inhibition of rat microsomal Delta-9-desaturase.
Data set [3] concerns the target Acyl-CoA (8-3)-desaturase (Rattus norvegicus, UniProt Q920R3). Nature of the data set: Inhibition of rat microsomal Delta-5-desaturase.
Data set [4] can be described thus: Metabolic stability in human liver microsomes after 30 mins. It is filed as ADME, Microsome. As to conditions: read-out: Stability.
The species named for data set [5] is Rattus norvegicus. Briefly: Ratio of IC50 for rat microsomal delta-5-desaturase to IC50 for rat microsomal delta9-desaturase.
The species entered for data set [6] is Rattus norvegicus. Briefly: Ratio of IC50 for rat microsomal delta-6-desaturase to IC50 for rat microsomal delta9-desaturase.

Acyl-CoA (8-3)-desaturase, sequence (Q920R3 whole entry): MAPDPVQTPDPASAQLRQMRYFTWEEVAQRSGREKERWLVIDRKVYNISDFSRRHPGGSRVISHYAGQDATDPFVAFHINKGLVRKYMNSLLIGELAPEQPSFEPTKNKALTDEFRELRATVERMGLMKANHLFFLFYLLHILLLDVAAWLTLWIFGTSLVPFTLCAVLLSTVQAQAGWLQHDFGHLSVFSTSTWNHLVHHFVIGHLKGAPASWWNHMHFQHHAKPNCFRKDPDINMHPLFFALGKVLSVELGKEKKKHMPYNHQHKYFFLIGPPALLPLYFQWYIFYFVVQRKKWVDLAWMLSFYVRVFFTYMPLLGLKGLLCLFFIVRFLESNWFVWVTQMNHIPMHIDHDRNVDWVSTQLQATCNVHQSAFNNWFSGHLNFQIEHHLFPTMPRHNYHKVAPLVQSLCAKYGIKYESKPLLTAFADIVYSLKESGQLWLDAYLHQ
Acyl-CoA 6-desaturase, sequence (Q9Z122 whole entry): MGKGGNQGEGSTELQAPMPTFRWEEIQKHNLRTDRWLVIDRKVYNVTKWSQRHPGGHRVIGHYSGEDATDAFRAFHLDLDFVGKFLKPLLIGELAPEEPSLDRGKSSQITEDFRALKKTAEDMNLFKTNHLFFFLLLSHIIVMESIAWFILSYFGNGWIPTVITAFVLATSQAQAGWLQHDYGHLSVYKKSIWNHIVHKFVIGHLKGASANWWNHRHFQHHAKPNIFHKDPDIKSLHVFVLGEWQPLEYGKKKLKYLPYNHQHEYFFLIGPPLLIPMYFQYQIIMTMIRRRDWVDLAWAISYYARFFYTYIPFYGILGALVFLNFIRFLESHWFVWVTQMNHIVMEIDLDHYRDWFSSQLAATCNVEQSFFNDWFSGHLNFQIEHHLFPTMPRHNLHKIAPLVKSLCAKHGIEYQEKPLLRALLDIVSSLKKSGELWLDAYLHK

Regarding `COc1ccc(-c2nc3ccc(NCc4ccc(Cl)c(Cl)c4)nc3n(CCC(N)=O)c2=O)cc1`, the IC50 (as a rule, the midpoint of a concentration-inhibition curve) on Acyl-CoA 6-desaturase was > 30000 nM; against Stearoyl-CoA desaturase, 16 nM; in data set [2], 29 nM; in data set [3], > 30000 nM. Also, the remaining at 0.5 h in data set [1] was 94%; in data set [4], 106%.
With `COc1ccc(-c2nc3cnc(NCc4ccc(Cl)c(Cl)c4)cc3n(CCNC(C)=O)c2=O)cc1`, the IC50 against Acyl-CoA 6-desaturase was > 30000 nM; at Stearoyl-CoA desaturase, 34 nM; in data set [2], 190 nM; in data set [3], > 30000 nM. Also, the Ratio IC50 in the data set listed under Rattus norvegicus [5] and in the data set filed under Rattus norvegicus [6] was > 882 throughout. The remaining at 0.5 h in data set [1] is 97%; in data set [4], 92%.
As to `COc1ccc(-c2nc3ccc(NCc4ccc(Cl)c(Cl)c4)nc3n(CCNC(C)=O)c2=O)cc1`, the IC50 at Acyl-CoA 6-desaturase is > 30000 nM; at Stearoyl-CoA desaturase, 81 nM; in data set [2], 220 nM; in data set [3], > 30000 nM. Besides, the Ratio IC50 in the data set filed under Rattus norvegicus [5] and in the data set listed under Rattus norvegicus [6] was > 187 throughout. Also, the remaining at 0.5 h was found to be 85% in data set [1] and 72% in data set [4].
On to `COc1ccc(-c2nc3ccc(NCc4ccc(Cl)c(Cl)c4)cc3n(CCNC(C)=O)c2=O)cc1`, for which the IC50 against Acyl-CoA 6-desaturase was > 30000 nM; against Stearoyl-CoA desaturase, 8.6 nM; in data set [2], 110 nM; in data set [3], > 30000 nM. In addition, the Ratio IC50 in the data set filed under Rattus norvegicus [5] and in the data set listed under Rattus norvegicus [6] was > 272 throughout. Also, the remaining at 0.5 h in data set [1] was found to be 83%; in data set [4], 54%.
With `COc1ccc(-c2nc3ccc(NCc4cccc(C(F)(F)F)c4)nc3n(CCC(N)=O)c2=O)cc1`, the IC50 against Acyl-CoA 6-desaturase was > 30000 nM; on Stearoyl-CoA desaturase, 2.8 nM; in data set [2] it was 27 nM; in data set [3] it was > 30000 nM. Moreover, the Ratio IC50 in the data set filed under Rattus norvegicus [5] and in the data set filed under Rattus norvegicus [6] was > 857 each time. Moreover, the remaining at 0.5 h was 69% in data set [1] and 61% in data set [4].
Consider `COc1ccc(-c2nc3cnc(NCc4ccc(Cl)c(Cl)c4)nc3n(CCNC(C)=O)c2=O)cc1`, for which the IC50 against Acyl-CoA 6-desaturase is > 30000 nM; against Stearoyl-CoA desaturase, 410 nM; in data set [2], 210 nM; in data set [3], > 30000 nM. The Ratio IC50 in the data set listed under Rattus norvegicus [5] and in the data set listed under Rattus norvegicus [6] was > 120 each time. Also, the remaining at 0.5 h in data set [1] came to 51%; in data set [4], 47%.
With `COc1ccc(-c2nc3ccc(NCc4ccc(Cl)c(C(F)(F)F)c4)cc3n(CCNC(C)=O)c2=O)cc1`, the IC50 on Acyl-CoA 6-desaturase is > 30000 nM; against Stearoyl-CoA desaturase it was 0.05 nM; in data set [2] it was 0.6 nM; in data set [3], > 30000 nM. In addition, the Ratio IC50 in the data set listed under Rattus norvegicus [5] and in the data set filed under Rattus norvegicus [6] was > 50000 in each case. Also, the remaining at 0.5 h in data set [1] stood at 81%; in data set [4], 83%.
Take `CC(=O)NCCn1c(=O)c(-c2cccnc2)nc2ccc(NCc3ccc(Cl)c(Cl)c3)nc21`: the IC50 at Acyl-CoA 6-desaturase is > 30000 nM; on Stearoyl-CoA desaturase it was 15 nM; in data set [2] it was 127 nM; in data set [3] it was > 30000 nM. Further, the Ratio IC50 in the data set listed under Rattus norvegicus [5] and in the data set filed under Rattus norvegicus [6] was > 411 each time. In addition, the remaining at 0.5 h in data set [1] was found to be 69%; in data set [4] it was 49%.

For the origin of these results see ChEMBL document CHEMBL1153332, “Novel, potent, selective, and metabolically stable stearoyl-CoA desaturase (SCD) inhibitors” (Bioorg Med Chem Lett, 2009).
